Assay results from patent US5672715A, “Herbicidal substituted 3-aryl-pyrazoles” (Monsanto Company, priority 1995, dated 1997).
Like-named read-outs stand apart in the source and are kept apart here.

Assays:
Type in all cases: in vivo
Barnyardgrass = test: pre-emergence herbicide test; conditions: Echinochloa crus-galli, pre-emergence, read-out: % plant inhibition
Outline: (§1)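 Greenhouse pan assay in which seeds lie under a treated topsoil cover; carrier was acetone or water. Inhibition (%) was recorded about 14 days post-treatment.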

Cocklebur = test: pre-emergence herbicide test; conditions: Xanthium strumarium, pre-emergence, read-out: % plant inhibition
Outline: as §1

Corn [1] = test: pre-emergence herbicide test; conditions: Zea mays, pre-emergence, read-out: % plant inhibition
Outline: as §1

Morning Glory [2] = test: pre-emergence herbicide test; conditions: Ipomoea, pre-emergence, read-out: % plant inhibition
Outline: as §1

Rice = test: pre-emergence herbicide test; conditions: Oryza sativa, read-out: % plant inhibition
Outline: as §1

Soybean = test: pre-emergence herbicide test; conditions: Glycine max, pre-emergence, read-out: % plant inhibition
Outline: as §1

Velvetleaf [3] = test: pre-emergence herbicide test; conditions: Abutilon theophrasti, pre-emergence, read-out: % plant inhibition
Outline: as §1

Yellow Foxtail [4] = test: pre-emergence herbicide test; conditions: Setaria, read-out: % plant inhibition
Outline: as §1

Yellow Nutsedge [5] = test: pre-emergence herbicide test; conditions: Cyperus, read-out: % plant inhibition
Outline: as §1

Blackgrass = test: post-emergence herbicide test; conditions: Alopecurus myosuroides, post-emergence, read-out: % plant inhibition; for inhibition at 7.95803 g/ha: 0.0071 lb/A; for inhibition at 40.0143 g/ha: 0.0357 lb/A; for inhibition at 200.072 g/ha: 0.1785 lb/A; for inhibition at 1000.92 g/ha: 0.893 lb/A
Outline: (§2)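 Sown pans kept on a greenhouse bench with irrigation or subirrigation until plants reached two to three weeks, then sprayed at 170.3 kPa (10 psig). Spray mix held about 0.4% by volume emulsifier; total volume 1870 L/Ha. Result expressed as percent inhibition.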

Common Chickweed = test: post-emergence herbicide test; conditions: post-emergence, read-out: % plant inhibition
Outline: as §2

Corn [6] = test: post-emergence herbicide test; conditions: Zea mays, post-emergence, read-out: % plant inhibition
Outline: as §2

Morning Glory [7] = test: post-emergence herbicide test; conditions: Ipomoea, post-emergence, read-out: % plant inhibition
Outline: as §2

Velvetleaf [8] = test: post-emergence herbicide test; conditions: Abutilon theophrasti, post-emergence, read-out: % plant inhibition
Outline: as §2

Yellow Foxtail [9] = test: post-emergence herbicide test; conditions: Setaria, read-out: % plant inhibition
Outline: as §2

Yellow Nutsedge [10] = test: post-emergence herbicide test; conditions: Cyperus, read-out: % plant inhibition
Outline: as §2

Question: How did the inhibition at 7.95803 g/ha (Barnyardgrass; 0.0071 lb/A) turn out when `Cc1c(-c2cc(OCC(=O)OC(C)C)c(Cl)cc2F)nn(C)c1C(F)(F)F` [Compound 38] was run?
Answer: 0%

Question: And the inhibition at 40.0143 g/ha (Barnyardgrass; 0.0357 lb/A)?
Answer: 15%

Question: What about the inhibition at 200.072 g/ha (Barnyardgrass; 0.1785 lb/A) of the same compound?
Answer: 35%

Question: What about the inhibition at 1000.92 g/ha (Barnyardgrass; 0.893 lb/A) of the same compound?
Answer: 70%

Question: And the inhibition at 40.0143 g/ha (Cocklebur; 0.0357 lb/A)?
Answer: 65%

Question: And the inhibition at 200.072 g/ha (Cocklebur; 0.1785 lb/A)?
Answer: 85%

Question: And the inhibition at 280.212 g/ha (Cocklebur; 0.25 lb/A)?
Answer: 70%

Question: What about the inhibition at 1000.92 g/ha (Cocklebur; 0.893 lb/A) of the same compound?
Answer: 90%

Question: What about the inhibition at 7.95803 g/ha (Corn [1]; 0.0071 lb/A) of the same compound?
Answer: 0%

Question: What about the inhibition at 40.0143 g/ha (Corn [1]; 0.0357 lb/A) of the same compound?
Answer: 0%

Question: What about the inhibition at 200.072 g/ha (Corn [1]; 0.1785 lb/A) of the same compound?
Answer: 0%

Question: And the inhibition at 1000.92 g/ha (Corn [1]; 0.893 lb/A)?
Answer: 40%

Question: What about the inhibition at 7.95803 g/ha (Morning Glory [2]; 0.0071 lb/A) of the same compound?
Answer: 20%

Question: What about the inhibition at 40.0143 g/ha (Morning Glory [2]; 0.0357 lb/A) of the same compound?
Answer: 75%

Question: And the inhibition at 200.072 g/ha (Morning Glory [2]; 0.1785 lb/A)?
Answer: 95%

Question: And the inhibition at 280.212 g/ha (Morning Glory [2]; 0.25 lb/A)?
Answer: 100%

Question: What about the inhibition at 1000.92 g/ha (Morning Glory [2]; 0.893 lb/A) of the same compound?
Answer: 100%

Question: And the inhibition at 7.95803 g/ha (Rice; 0.0071 lb/A)?
Answer: 0%

Question: And the inhibition at 40.0143 g/ha (Rice; 0.0357 lb/A)?
Answer: 0%

Question: What about the inhibition at 200.072 g/ha (Rice; 0.1785 lb/A) of the same compound?
Answer: 0%

Question: And the inhibition at 1000.92 g/ha (Rice; 0.893 lb/A)?
Answer: 40%

Question: And the inhibition at 7.95803 g/ha (Soybean; 0.0071 lb/A)?
Answer: 0%

Question: And the inhibition at 40.0143 g/ha (Soybean; 0.0357 lb/A)?
Answer: 5%

Question: What about the inhibition at 280.212 g/ha (Soybean; 0.25 lb/A) of the same compound?
Answer: 0%

Question: And the inhibition at 1000.92 g/ha (Soybean; 0.893 lb/A)?
Answer: 70%

Question: What about the inhibition at 7.95803 g/ha (Velvetleaf [3]; 0.0071 lb/A) of the same compound?
Answer: 100%

Question: And the inhibition at 40.0143 g/ha (Velvetleaf [3]; 0.0357 lb/A)?
Answer: 80%

Question: And the inhibition at 200.072 g/ha (Velvetleaf [3]; 0.1785 lb/A)?
Answer: 98%

Question: What about the inhibition at 280.212 g/ha (Velvetleaf [3]; 0.25 lb/A) of the same compound?
Answer: 100%

Question: What about the inhibition at 1000.92 g/ha (Velvetleaf [3]; 0.893 lb/A) of the same compound?
Answer: 100%

Question: What about the inhibition at 7.95803 g/ha (Yellow Foxtail [4]; 0.0071 lb/A) of the same compound?
Answer: 0%

Question: And the inhibition at 40.0143 g/ha (Yellow Foxtail [4]; 0.0357 lb/A)?
Answer: 0%

Question: What about the inhibition at 200.072 g/ha (Yellow Foxtail [4]; 0.1785 lb/A) of the same compound?
Answer: 25%

Question: And the inhibition at 280.212 g/ha (Yellow Foxtail [4]; 0.25 lb/A)?
Answer: 40%

Question: What about the inhibition at 1000.92 g/ha (Yellow Foxtail [4]; 0.893 lb/A) of the same compound?
Answer: 65%

Question: What about the inhibition at 7.95803 g/ha (Yellow Nutsedge [5]; 0.0071 lb/A) of the same compound?
Answer: 0%

Question: What about the inhibition at 40.0143 g/ha (Yellow Nutsedge [5]; 0.0357 lb/A) of the same compound?
Answer: 20%

Question: And the inhibition at 200.072 g/ha (Yellow Nutsedge [5]; 0.1785 lb/A)?
Answer: 0%

Question: What about the inhibition at 1000.92 g/ha (Yellow Nutsedge [5]; 0.893 lb/A) of the same compound?
Answer: 85%

Question: And the inhibition at 7.95803 g/ha (Blackgrass; Table 4a)?
Answer: 0%

Question: And the inhibition at 7.95803 g/ha (Blackgrass; Table 5a)?
Answer: 0%

Question: And the inhibition at 40.0143 g/ha (Blackgrass; Table 4a)?
Answer: 0%

Question: And the inhibition at 40.0143 g/ha (Blackgrass; Table 5a)?
Answer: 25%

Question: And the inhibition at 200.072 g/ha (Blackgrass; Table 4a)?
Answer: 10%

Question: What about the inhibition at 200.072 g/ha (Blackgrass; Table 5a) of the same compound?
Answer: 30%

Question: And the inhibition at 1000.92 g/ha (Blackgrass; Table 4a)?
Answer: 0%

Question: And the inhibition at 1000.92 g/ha (Blackgrass; Table 5a)?
Answer: 5%

Question: What about the inhibition at 7.95803 g/ha (Common Chickweed; 0.0071 lb/A) of the same compound?
Answer: 65%

Question: And the inhibition at 40.0143 g/ha (Common Chickweed; 0.0357 lb/A)?
Answer: 75%

Question: What about the inhibition at 200.072 g/ha (Common Chickweed; 0.1785 lb/A) of the same compound?
Answer: 95%

Question: And the inhibition at 1000.92 g/ha (Common Chickweed; 0.893 lb/A)?
Answer: 98%

Question: What about the inhibition at 7.95803 g/ha (Corn [6]; 0.0071 lb/A) of the same compound?
Answer: 5%

Question: What about the inhibition at 40.0143 g/ha (Corn [6]; 0.0357 lb/A) of the same compound?
Answer: 10%

Question: What about the inhibition at 200.072 g/ha (Corn [6]; 0.1785 lb/A) of the same compound?
Answer: 25%

Question: And the inhibition at 280.212 g/ha (Corn [6]; 0.25 lb/A)?
Answer: 10%

Question: What about the inhibition at 1000.92 g/ha (Corn [6]; 0.893 lb/A) of the same compound?
Answer: 25%

Question: And the inhibition at 7.95803 g/ha (Morning Glory [7]; 0.0071 lb/A)?
Answer: 80%

Question: And the inhibition at 40.0143 g/ha (Morning Glory [7]; 0.0357 lb/A)?
Answer: 100%

Question: And the inhibition at 200.072 g/ha (Morning Glory [7]; 0.1785 lb/A)?
Answer: 100%

Question: What about the inhibition at 280.212 g/ha (Morning Glory [7]; 0.25 lb/A) of the same compound?
Answer: 95%

Question: What about the inhibition at 1000.92 g/ha (Morning Glory [7]; 0.893 lb/A) of the same compound?
Answer: 100%

Question: What about the inhibition at 7.95803 g/ha (Velvetleaf [8]; 0.0071 lb/A) of the same compound?
Answer: 65%

Question: And the inhibition at 40.0143 g/ha (Velvetleaf [8]; 0.0357 lb/A)?
Answer: 100%

Question: And the inhibition at 200.072 g/ha (Velvetleaf [8]; 0.1785 lb/A)?
Answer: 100%

Question: What about the inhibition at 280.212 g/ha (Velvetleaf [8]; 0.25 lb/A) of the same compound?
Answer: 100%

Question: What about the inhibition at 1000.92 g/ha (Velvetleaf [8]; 0.893 lb/A) of the same compound?
Answer: 100%

Question: What about the inhibition at 7.95803 g/ha (Yellow Foxtail [9]; 0.0071 lb/A) of the same compound?
Answer: 0%

Question: What about the inhibition at 40.0143 g/ha (Yellow Foxtail [9]; 0.0357 lb/A) of the same compound?
Answer: 35%

Question: What about the inhibition at 200.072 g/ha (Yellow Foxtail [9]; 0.1785 lb/A) of the same compound?
Answer: 10%

Question: And the inhibition at 1000.92 g/ha (Yellow Foxtail [9]; 0.893 lb/A)?
Answer: 15%

Question: And the inhibition at 7.95803 g/ha (Yellow Nutsedge [10]; 0.0071 lb/A)?
Answer: 35%

Question: And the inhibition at 40.0143 g/ha (Yellow Nutsedge [10]; 0.0357 lb/A)?
Answer: 25%

Question: And the inhibition at 200.072 g/ha (Yellow Nutsedge [10]; 0.1785 lb/A)?
Answer: 25%

Question: What about the inhibition at 1000.92 g/ha (Yellow Nutsedge [10]; 0.893 lb/A) of the same compound?
Answer: 25%
